Experimental data from patent US20240366624A1, “METHODS AND COMPOSITIONS FOR TREATING THROMBOTIC DISEASE” (Washington University, priority 2023, published 2024).

Key:
ERO1α = biological target: T1, ERO1α (Homo sapiens, UniProt Q96HE7); assay: ERO1α activity assay; type: biochemical; conditions: 20 μM
T1 sequence (Q96HE7 24-468): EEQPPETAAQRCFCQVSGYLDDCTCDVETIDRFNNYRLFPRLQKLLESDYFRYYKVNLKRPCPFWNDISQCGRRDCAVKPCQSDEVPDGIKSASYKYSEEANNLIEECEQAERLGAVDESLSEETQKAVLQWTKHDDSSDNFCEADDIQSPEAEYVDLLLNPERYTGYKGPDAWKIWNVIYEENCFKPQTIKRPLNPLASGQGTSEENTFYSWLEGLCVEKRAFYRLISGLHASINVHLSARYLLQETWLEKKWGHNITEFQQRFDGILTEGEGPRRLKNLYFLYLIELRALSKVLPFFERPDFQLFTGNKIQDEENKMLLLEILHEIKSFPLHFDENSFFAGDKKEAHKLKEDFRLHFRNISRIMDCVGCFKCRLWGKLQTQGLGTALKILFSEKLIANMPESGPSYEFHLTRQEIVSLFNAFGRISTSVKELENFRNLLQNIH
From the text: (§1) FIG. 17(A-F) is an exemplary embodiment of identification of novel ERO1α inhibitors by high throughput screening in accordance with the present disclosure. FIG. 17A: A scheme of an ERO1α activity assay. FIG. 17B: Screening of chemical libraries in the ERO1α activity assay. FIG. 17C: The inhibitory effect of selected compounds on ERO1α activity. FIG. 17D: The inhibitory effect of selected compounds on PDI activity. FIG. 17E: The inhibitory effect of selected compounds on H2O2 activity. FIG. 17F: The inhibitory effect of selected compounds on thiol-reacting activity. The data represent the mean±SD (n=3). *P<0.05, **P<0.01, ***P<0.001, and ****P<0.0001 vs. vehicle control, Student's t-test.
(§2) To identify a novel ERO1α inhibitor, 5800 compounds were screened using an ERO1α activity assay (FIG. 17A and FIG. 17B). […] The selected compounds were further tested in assays measuring PDI, antioxidant, and thiol-reacting activities (FIG. 17D through FIG. 17F). […] B12 inhibited P-selectin exposure and αIIbβ3 activation in agonist-activated mouse and human platelets in a concentration-dependent manner (FIG. 18B through FIG. 18E).

PDI = PDI (Homo sapiens, UniProt P07237); assay: PDI activity assay; type: biochemical; conditions: 100 μM
PDI, sequence (P07237 18-508, species assumed): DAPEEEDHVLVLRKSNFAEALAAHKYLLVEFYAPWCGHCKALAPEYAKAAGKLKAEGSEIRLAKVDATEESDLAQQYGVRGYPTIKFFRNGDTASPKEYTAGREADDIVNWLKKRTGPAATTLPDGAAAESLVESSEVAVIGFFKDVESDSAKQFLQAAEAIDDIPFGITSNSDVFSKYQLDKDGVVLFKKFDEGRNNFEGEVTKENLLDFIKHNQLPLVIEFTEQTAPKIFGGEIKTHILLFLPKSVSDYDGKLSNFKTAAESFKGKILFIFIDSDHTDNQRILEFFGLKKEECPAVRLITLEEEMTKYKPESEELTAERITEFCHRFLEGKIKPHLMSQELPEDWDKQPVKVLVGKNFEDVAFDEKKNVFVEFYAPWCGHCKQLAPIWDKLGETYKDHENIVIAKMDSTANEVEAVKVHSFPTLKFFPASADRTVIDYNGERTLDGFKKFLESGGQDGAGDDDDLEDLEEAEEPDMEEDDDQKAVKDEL
From the text: as §1, §2

[1] = H2O2 (antioxidant) activity assay; type: biochemical; conditions: 100 μM
From the text: as §1, §2

[2] = thiol-reacting (GSH) activity assay; type: biochemical; conditions: 100 μM
From the text: as §1, §2

[3] = biological target: T2, MAO-A (monoamine oxidase A) (Homo sapiens, UniProt P21397); assay: MAO-A activity assay; type: biochemical; conditions: 100 μM
T2 sequence (P21397 1-527): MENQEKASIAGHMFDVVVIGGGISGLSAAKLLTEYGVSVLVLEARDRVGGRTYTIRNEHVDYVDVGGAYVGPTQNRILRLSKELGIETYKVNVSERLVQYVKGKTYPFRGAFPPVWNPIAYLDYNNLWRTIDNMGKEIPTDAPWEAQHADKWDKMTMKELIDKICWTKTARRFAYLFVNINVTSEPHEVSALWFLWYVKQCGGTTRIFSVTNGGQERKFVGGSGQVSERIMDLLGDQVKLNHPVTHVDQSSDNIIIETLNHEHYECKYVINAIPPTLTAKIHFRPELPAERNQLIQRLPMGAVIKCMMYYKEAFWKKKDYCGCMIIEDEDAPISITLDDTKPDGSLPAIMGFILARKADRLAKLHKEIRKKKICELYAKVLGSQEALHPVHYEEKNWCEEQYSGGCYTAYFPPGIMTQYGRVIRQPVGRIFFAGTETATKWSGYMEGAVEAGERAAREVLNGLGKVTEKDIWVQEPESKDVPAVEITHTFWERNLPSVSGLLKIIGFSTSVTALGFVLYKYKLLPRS

Ero1α-null platelets = assay: Platelet aggregation, Ero1α-null platelets; type: cell-based, mouse; conditions: 50 μg/mL protein, 0.025 U/mL thrombin
Method: FIG. 7(A-L) is an exemplary embodiment of crucial intracellular ERO1α (endoplasmic reticulum oxidoreductase 1a) for platelet activation, aggregation, and thrombus formation in accordance with the present disclosure. FIG. 7A: Ex vivo platelet thrombus formation in a flow chamber assay. Adherent and aggregated platelets were stained with rhodamine-conjugated phalloidin and imaged by confocal microscopy. Representative images (bar, 10 μm). Surface coverage and thrombus volume were measured (mean±SD, n=4). FIG. 7(B-E): Aggregation and ATP secretion of wild type (WT) and Ero1α-null platelets were induced by 0.025 U/mL thrombin, 0.05 μg/mL CRP (collagen-related peptide), 0.5 μM A23187, or 2.5 μM ADP. Platelet aggregation (i) and ATP secretion (ii). FIG. 7F: Ero1α-null platelets were pretreated with 50 μg/mL wtERO1α or wtPDI and then with 0.025 U/mL thrombin. Quantification graphs of aggregation and ATP secretion are presented as the mean±SD (n=3-4). FIG. 7G and FIG. 7H: P-selectin exposure and αIIbβ3 integrin activation of WT and Ero1α-null platelets were analyzed by flow cytometry. The data are presented as the geometric mean fluorescence intensity (MFI) value (mean±SD, n=3-4). FIG. 7I: WT and Ero1α-null platelets were treated with or without 0.025 U/mL thrombin for 1 minute in an aggregometer. The lysates were immunoprecipitated with control IgG or anti-β3 antibodies and subjected to immunoblotting with antibodies against talin1 or β3 and densitometric analysis (mean±SD, n=3). FIG. 7J: WT and Ero1α-null platelets were treated with or without 0.025 U/mL thrombin, followed by transmission electron microscopy. The original magnification was 34 800, and the extension was 313 000. Bar, 500 nm. FIG. 7K and FIG. 7L: Intravital microscopy was performed to determine the effect of 15E9 (1-3 μg/g body weight [BW]) and a blocking anti-PDI (protein disulfide isomerase) antibody (BD34, 3 μg/g BW) on platelet thrombus formation and fibrin generation at the site of laser-induced cremaster arteriolar injury (n=27-40 arterioles in 6 mice per group). The n indicates biological replicates. P values determined by unpaired Student t test (FIG. 7(A-E) and FIG. 7(G-1)), ANOVA and Dunnett test (FIG. 7F), or Mann-Whitney U test (FIG. 7K and FIG. 7L).
FIG. 9(A-C) is an exemplary embodiment of EN460 inhibiting thrombin-induced aggregation of mouse and human platelets in accordance with the present disclosure. […] P values determined by ANOVA and Dunnett's test (FIG. 9(A-B)) or Student's t-test (FIG. 9C).
FIG. 10(A-E) is an exemplary embodiment of 15E9 not affecting platelet activation and aggregation in accordance with the present disclosure. […] P values determined by unpaired Student's t-test (vs. mIgG1). […]

For O=C(COc1ccccc1)N1c2ccccc2Sc2ccccc21 [B12-3], which “ERO1α inhibition at 20 μM (%)” value (ERO1α) is on record?
The value was 57.0 ± 19%.

What about the “PDI inhibition at 100 μM (%)” value (PDI) of the same molecule?
Its value is 10.2 ± 3%.

And the “H2O2 inhibition at 100 μM (%)” value [1]?
The value was 2.1 ± 1%.

And the “GSH inhibition at 100 μM (%)” value [2]?
The value was 22.3 ± 7%.

And the “MAO-A inhibition at 100 μM (%)” value [3]?
The value was 24.8 ± 4%.

What does the source list for O=C(COc1ccc(O)cc1)N1c2ccccc2Sc2ccccc21 [B12-4]?
ERO1α inhibition at 20 μM (%) (ERO1α): 74.0 ± 17%; PDI inhibition at 100 μM (%) (PDI): 13.2 ± 3%; H2O2 inhibition at 100 μM (%) [1]: 6.0 ± 2%; GSH inhibition at 100 μM (%) [2]: 27.2 ± 7%; MAO-A inhibition at 100 μM (%) [3]: 34.8 ± 4%

What does the source list for N#Cc1cc(SCC(=O)N2c3ccccc3Sc3ccccc32)nc2c1CCCC2 [B12-6]?
ERO1α inhibition at 20 μM (%) (ERO1α): 87.6 ± 17%; PDI inhibition at 100 μM (%) (PDI): 20.2 ± 4%; H2O2 inhibition at 100 μM (%) [1]: 1.7 ± 1%; GSH inhibition at 100 μM (%) [2]: 30.1 ± 10%; MAO-A inhibition at 100 μM (%) [3]: 37.7 ± 8%

Which “ERO1α inhibition at 20 μM (%)” value (ERO1α) does the source give for CCCn1c(SCC(=O)N2c3ccccc3Sc3ccccc32)nc2ccccc21 [B12-7] here?
The value was 75.5 ± 20%.

And the “PDI inhibition at 100 μM (%)” value (PDI)?
Its value is 30.3 ± 8%.

And the “H2O2 inhibition at 100 μM (%)” value [1]?
The value was 1.9 ± 1%.

And the “GSH inhibition at 100 μM (%)” value [2]?
The value was 33.3 ± 10%.

What about the “MAO-A inhibition at 100 μM (%)” value [3] of the same molecule?
Its value is 39.1 ± 8%.

For O=C(COc1nc2ccccc2s1)n1c2ccccc2c2ccccc21 [B12-8*], which “ERO1α inhibition at 20 μM (%)” value (ERO1α) is on record?
The value was 48.6 ± 10%.

And the “PDI inhibition at 100 μM (%)” value (PDI)?
Its value is 8.6 ± 3%.

What about the “H2O2 inhibition at 100 μM (%)” value [1] of the same molecule?
Its value is 0.3 ± 0.1%.

And the “GSH inhibition at 100 μM (%)” value [2]?
The value was 13.6 ± 3%.

And the “MAO-A inhibition at 100 μM (%)” value [3]?
The value was 22.3 ± 5%.

What does the source list for Cc1nc2ccccc2nc1SCC(=O)N1c2ccccc2Sc2ccccc21 [B12-11]?
ERO1α inhibition at 20 μM (%) (ERO1α): 82.3 ± 20%; PDI inhibition at 100 μM (%) (PDI): 23.1 ± 5%; H2O2 inhibition at 100 μM (%) [1]: 2.3 ± 1%; GSH inhibition at 100 μM (%) [2]: 33.5 ± 4%; MAO-A inhibition at 100 μM (%) [3]: 28.1 ± 5%

Which “ERO1α inhibition at 20 μM (%)” value (ERO1α) does the source give for COc1ccc2nc(SCC(=O)n3c4ccccc4c4ccccc43)nc(C)c2c1 [B12-13*] here?
Its value is 53.7 ± 9%.

And the “PDI inhibition at 100 μM (%)” value (PDI)?
The value was 19.1 ± 4%.

What about the “H2O2 inhibition at 100 μM (%)” value [1] of the same molecule?
Its value is 4.2 ± 1%.

And the “GSH inhibition at 100 μM (%)” value [2]?
Its value is 33.1 ± 4%.

And the “MAO-A inhibition at 100 μM (%)” value [3]?
The value was 36.7 ± 8%.

For CCCn1c2ccccc2c2nnc(SCC(=O)N3c4ccccc4Sc4ccccc43)nc21 [B12-14], which “ERO1α inhibition at 20 μM (%)” value (ERO1α) is on record?
The value was 59.0 ± 6%.

And the “PDI inhibition at 100 μM (%)” value (PDI)?
Its value is 21.4 ± 6%.

What about the “H2O2 inhibition at 100 μM (%)” value [1] of the same molecule?
The value was 3.4 ± 1%.

What about the “GSH inhibition at 100 μM (%)” value [2] of the same molecule?
The value was 31.9 ± 5%.

And the “MAO-A inhibition at 100 μM (%)” value [3]?
Its value is 28.3 ± 5%.

With CCCc1cc(O)nc(SCC(=O)N2c3ccccc3Sc3ccccc32)n1 [B12-16] as the molecule, how does the “ERO1α inhibition at 20 μM (%)” value (ERO1α) read?
The value was 11.5 ± 3%.

What about the “PDI inhibition at 100 μM (%)” value (PDI) of the same molecule?
The value was 11.9 ± 3%.

And the “H2O2 inhibition at 100 μM (%)” value [1]?
The value was 80.0 ± 18%.

And the “GSH inhibition at 100 μM (%)” value [2]?
The value was 21.9 ± 6%.

What about the “MAO-A inhibition at 100 μM (%)” value [3] of the same molecule?
The value was 34.3 ± 6%.

What does the source list for COc1cc(O)nc(SCC(=O)N2c3ccccc3Sc3ccccc32)n1 [B12-18]?
ERO1α inhibition at 20 μM (%) (ERO1α): 83.9 ± 16%; PDI inhibition at 100 μM (%) (PDI): 12.4 ± 5%; H2O2 inhibition at 100 μM (%) [1]: 0.2 ± 0.1%; GSH inhibition at 100 μM (%) [2]: 25.9 ± 5%; MAO-A inhibition at 100 μM (%) [3]: 37.5 ± 7%

Which “ERO1α inhibition at 20 μM (%)” value (ERO1α) does the source give for Cc1cc(O)nc(SCC(=O)N2c3ccccc3Sc3ccccc32)n1 [B12-20] here?
Its value is 82.3 ± 15%.

And the “PDI inhibition at 100 μM (%)” value (PDI)?
The value was 6.7 ± 2%.

And the “H2O2 inhibition at 100 μM (%)” value [1]?
The value was 2.3 ± 1%.

What about the “GSH inhibition at 100 μM (%)” value [2] of the same molecule?
Its value is 10.2 ± 2%.

And the “MAO-A inhibition at 100 μM (%)” value [3]?
The value was 50.2 ± 7%.

Which “ERO1α inhibition at 20 μM (%)” value (ERO1α) does the source give for O=C(COc1nc2ccccc2s1)N1c2ccccc2Sc2ccccc21 [B12-22] here?
Its value is 60.5 ± 8%.

What about the “PDI inhibition at 100 μM (%)” value (PDI) of the same molecule?
Its value is 38.5 ± 8%.

What about the “H2O2 inhibition at 100 μM (%)” value [1] of the same molecule?
Its value is 4.9 ± 1%.

And the “GSH inhibition at 100 μM (%)” value [2]?
The value was 62.5 ± 7%.

What about the “MAO-A inhibition at 100 μM (%)” value [3] of the same molecule?
Its value is 28.8 ± 6%.

Which “rescue of the defect in Ero1α-null platelet aggregation” value (Ero1α-null platelets) does the source give for wtPDI: recombinant wild-type PDI here?
The value was “did not rescue”.
